Molecules are shown by their SMILES. Like-named read-outs stand apart in the source and are kept apart here.

From patent US9902733B2, “Furopyridines as inhibitors of protein kinases” (MASARYKOVA UNIVERZITA, priority 2014, dated 2018) come the findings set out here.

Holding throughout (assay type): biochemical
One test deals with T1, HIPK2(h) (Homo sapiens, UniProt Q9H2X6).
T1 construct: purchased Merck Millipore (KinaseProfiler service)
Kind of test: HIPK2 KinaseProfiler radiometric protein kinase assay. As to conditions: 10 μM ATP, 40 minutes at room temperature. Here is the method:
(§1) In vitro essays were performed by the company Merck Millipore in their KinaseProfiler radiometric protein kinase assay as paid commercial service. The compounds IC50 values for inhibition of individual protein kinases were determined. Dose-response curves were plotted from inhibition data generated, each in duplicate, from 10 point serial dilutions of inhibitory compounds. Concentration of compound was plotted against % kinase activity. To generate IC50 values, the dose-response curves were fitted to a standard sigmoidal curve and IC50 values were derived by standard nonlinear regression analysis.
(§2) All tested compounds were prepared in 100% DMSO to final assay concentrations either 0.5 mM (for the concentration row A, see below) or 0.05 mM (for the concentration row B). This working stock of the compound was added to the assay well as the first component in the reaction, followed by the remaining components as detailed below. The stock solution was added to the individual assay wells in such amounts that the concentrations of the compound were either in the row A (0.001 μM, 0.003 μM, 0.01 μM, 0.03 μM, 0.1 μM, 0.3 μM, 1.0 μM, 3.0 μM, and 10.0 μM) or in the row B (0.0001 μM, 0.0003 μM, 0.001 μM, 0.003 μM, 0.01 μM, 0.03 μM, 0.1 μM, 0.3 μM, and 1.0 μM). There was no pre-incubation step between the compound and the kinase prior to initiation of the reaction.
(§3) The positive control wells contained all components of the reaction, except the compound of interest; however, DMSO (at a final concentration of 2%) was included in these wells to control for solvent effects. The blank wells contained all components of the reaction, with staurosporine as a reference inhibitor replacing the compound of interest. This abolished kinase activity and established the base-line (0% kinase activity remaining).
HIPK2(h) was diluted in the buffer (20 mM MOPS, 1 mM EDTA, 0.01% Brij-35, 5% Glycerol, 0.1% β-mercaptoethanol, 1 mg/mL BSAs) to the concentration of 1.01 mg/mL prior to addition to the reaction mix.
(§4) The above stock solution of HIPK2(h) was added to a mixture containing 8 mM MOPS pH 7.0, 0.2 mM EDTA, and 0.33 mg/mL myelin basic protein in such amount that the resulting concentration of HIPK2(h) was 1.4 nM. This mixture was added to the stock solution of the tested compound. The reaction was initiated by the addition of the MgATP mix in such amount that the resulting concentration of Mg acetate in the reaction mixture was 10 mM and [γ-^33P-ATP] (specific activity approx. 500 cpm/pmol) was 10 μM. After incubation for 40 minutes at room temperature, the reaction was stopped by the addition of 3% phosphoric acid solution. 10 μL of the reaction was then spotted onto a P30 filtermat and washed three times for 5 minutes in 75 mM phosphoric acid and once in methanol prior to drying and scintillation counting.

The next test deals with T2, CLK2 (h) (Homo sapiens, UniProt P49760).
T2 construct: purchased Merck Millipore (KinaseProfiler service)
Kind of test: CLK2 KinaseProfiler radiometric protein kinase assay. Here is the method:
as §1, §2, §3
CLK2 (h) was diluted in the buffer (20 mM MOPS (3-(N-morpholino)propanesulfonic acid), 1 mM EDTA (ethylendiaminotetraacetic acid), 0.01% Brij-35 (detergent), 5% Glycerol, 0.1% β-mercaptoethanol, 1 mg/mL BSAs) to the concentration of 1.01 mg/mL prior to addition to the reaction mix.
as §4, with “solution of CLK2(h) was added” for “solution of HIPK2(h) was added”, “EDTA, and 20 μM […](p) EDEEE in such” for “EDTA, and 0.33 mg/mL myelin basic protein in such”, “concentration of CLK2(h) was 2.1” for “concentration of HIPK2(h) was 1.4”, “CLK2(h) was 2.1 nM. This” for “HIPK2(h) was 1.4 nM. This”, “cpm/pmol) was 15 μM. After” for “cpm/pmol) was 10 μM. After”

The next test deals with T3, DYRK2 (Homo sapiens, UniProt Q92630).
T3 construct: purchased Merck Millipore (KinaseProfiler service)
T3 sequence (Q92630 1-601): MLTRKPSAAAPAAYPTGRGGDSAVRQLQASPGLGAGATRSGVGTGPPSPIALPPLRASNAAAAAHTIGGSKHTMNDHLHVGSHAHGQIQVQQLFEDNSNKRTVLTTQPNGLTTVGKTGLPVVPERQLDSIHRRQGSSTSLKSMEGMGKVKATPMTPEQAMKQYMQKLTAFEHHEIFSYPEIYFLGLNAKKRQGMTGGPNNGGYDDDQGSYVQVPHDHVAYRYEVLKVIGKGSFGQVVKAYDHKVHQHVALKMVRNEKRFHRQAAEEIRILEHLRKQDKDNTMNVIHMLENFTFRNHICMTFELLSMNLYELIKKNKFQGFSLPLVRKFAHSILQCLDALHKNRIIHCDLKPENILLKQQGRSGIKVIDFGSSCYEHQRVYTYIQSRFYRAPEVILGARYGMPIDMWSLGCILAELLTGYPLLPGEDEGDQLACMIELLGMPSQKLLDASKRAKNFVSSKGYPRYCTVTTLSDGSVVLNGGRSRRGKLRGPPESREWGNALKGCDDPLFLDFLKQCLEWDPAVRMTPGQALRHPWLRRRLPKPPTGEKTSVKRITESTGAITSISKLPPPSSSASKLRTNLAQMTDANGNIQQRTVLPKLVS
Kind of test: DYRK2 KinaseProfiler radiometric protein kinase assay. How it is done: as §1, §2, §3

Another test has as its target T4, HIPK1(h) (Homo sapiens, UniProt Q86Z02).
T4 construct: purchased Merck Millipore (KinaseProfiler service)
In words: HIPK1 KinaseProfiler radiometric protein kinase assay. As to conditions: 45 μM ATP, 40 minutes at room temperature. How it is done: as §1, §2, §3
HIPK1(h) was diluted in the buffer (20 mM MOPS, 1 mM EDTA, 0.01% Brij-35, 5% Glycerol, 0.1% β-mercaptoethanol, 1 mg/mL BSAs) to the concentration of 1.01 mg/mL prior to addition to the reaction mix.
as §4, with “solution of HIPK1(h) was added” for “solution of HIPK2(h) was added”, “concentration of HIPK1(h) was 4.7” for “concentration of HIPK2(h) was 1.4”, “HIPK1(h) was 4.7 nM. This” for “HIPK2(h) was 1.4 nM. This”, “cpm/pmol) was 45 μM. After” for “cpm/pmol) was 10 μM. After”

T4 sequence (Q86Z02 whole entry): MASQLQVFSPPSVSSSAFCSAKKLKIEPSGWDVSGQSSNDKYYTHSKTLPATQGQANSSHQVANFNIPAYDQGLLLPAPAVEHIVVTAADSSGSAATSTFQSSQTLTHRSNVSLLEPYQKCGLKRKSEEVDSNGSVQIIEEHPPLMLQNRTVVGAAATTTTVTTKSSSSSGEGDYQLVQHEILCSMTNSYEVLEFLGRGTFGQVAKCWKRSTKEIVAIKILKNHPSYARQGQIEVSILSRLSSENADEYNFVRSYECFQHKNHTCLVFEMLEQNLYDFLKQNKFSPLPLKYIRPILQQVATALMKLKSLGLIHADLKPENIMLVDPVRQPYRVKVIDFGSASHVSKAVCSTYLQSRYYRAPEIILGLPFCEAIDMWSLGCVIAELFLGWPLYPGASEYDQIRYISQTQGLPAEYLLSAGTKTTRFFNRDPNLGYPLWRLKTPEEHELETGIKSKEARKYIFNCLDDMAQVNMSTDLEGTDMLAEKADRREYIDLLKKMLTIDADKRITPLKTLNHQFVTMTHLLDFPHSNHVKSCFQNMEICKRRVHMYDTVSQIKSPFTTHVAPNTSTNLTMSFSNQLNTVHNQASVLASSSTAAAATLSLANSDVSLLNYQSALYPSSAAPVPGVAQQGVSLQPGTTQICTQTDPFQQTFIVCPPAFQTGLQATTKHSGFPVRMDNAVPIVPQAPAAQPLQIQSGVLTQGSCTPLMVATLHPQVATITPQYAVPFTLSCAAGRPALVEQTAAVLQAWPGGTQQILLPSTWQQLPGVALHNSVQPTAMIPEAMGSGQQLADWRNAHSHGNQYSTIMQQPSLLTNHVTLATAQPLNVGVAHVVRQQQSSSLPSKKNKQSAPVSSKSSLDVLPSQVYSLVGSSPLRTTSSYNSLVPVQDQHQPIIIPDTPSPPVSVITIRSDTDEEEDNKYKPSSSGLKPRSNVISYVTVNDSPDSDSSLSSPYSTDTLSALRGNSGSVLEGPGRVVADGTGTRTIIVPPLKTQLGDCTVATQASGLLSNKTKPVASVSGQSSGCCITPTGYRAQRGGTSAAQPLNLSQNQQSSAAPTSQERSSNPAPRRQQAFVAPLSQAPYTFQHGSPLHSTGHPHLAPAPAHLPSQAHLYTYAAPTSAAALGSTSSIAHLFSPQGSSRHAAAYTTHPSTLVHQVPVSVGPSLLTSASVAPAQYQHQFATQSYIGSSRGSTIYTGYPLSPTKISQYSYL
T1 sequence (Q9H2X6 whole entry): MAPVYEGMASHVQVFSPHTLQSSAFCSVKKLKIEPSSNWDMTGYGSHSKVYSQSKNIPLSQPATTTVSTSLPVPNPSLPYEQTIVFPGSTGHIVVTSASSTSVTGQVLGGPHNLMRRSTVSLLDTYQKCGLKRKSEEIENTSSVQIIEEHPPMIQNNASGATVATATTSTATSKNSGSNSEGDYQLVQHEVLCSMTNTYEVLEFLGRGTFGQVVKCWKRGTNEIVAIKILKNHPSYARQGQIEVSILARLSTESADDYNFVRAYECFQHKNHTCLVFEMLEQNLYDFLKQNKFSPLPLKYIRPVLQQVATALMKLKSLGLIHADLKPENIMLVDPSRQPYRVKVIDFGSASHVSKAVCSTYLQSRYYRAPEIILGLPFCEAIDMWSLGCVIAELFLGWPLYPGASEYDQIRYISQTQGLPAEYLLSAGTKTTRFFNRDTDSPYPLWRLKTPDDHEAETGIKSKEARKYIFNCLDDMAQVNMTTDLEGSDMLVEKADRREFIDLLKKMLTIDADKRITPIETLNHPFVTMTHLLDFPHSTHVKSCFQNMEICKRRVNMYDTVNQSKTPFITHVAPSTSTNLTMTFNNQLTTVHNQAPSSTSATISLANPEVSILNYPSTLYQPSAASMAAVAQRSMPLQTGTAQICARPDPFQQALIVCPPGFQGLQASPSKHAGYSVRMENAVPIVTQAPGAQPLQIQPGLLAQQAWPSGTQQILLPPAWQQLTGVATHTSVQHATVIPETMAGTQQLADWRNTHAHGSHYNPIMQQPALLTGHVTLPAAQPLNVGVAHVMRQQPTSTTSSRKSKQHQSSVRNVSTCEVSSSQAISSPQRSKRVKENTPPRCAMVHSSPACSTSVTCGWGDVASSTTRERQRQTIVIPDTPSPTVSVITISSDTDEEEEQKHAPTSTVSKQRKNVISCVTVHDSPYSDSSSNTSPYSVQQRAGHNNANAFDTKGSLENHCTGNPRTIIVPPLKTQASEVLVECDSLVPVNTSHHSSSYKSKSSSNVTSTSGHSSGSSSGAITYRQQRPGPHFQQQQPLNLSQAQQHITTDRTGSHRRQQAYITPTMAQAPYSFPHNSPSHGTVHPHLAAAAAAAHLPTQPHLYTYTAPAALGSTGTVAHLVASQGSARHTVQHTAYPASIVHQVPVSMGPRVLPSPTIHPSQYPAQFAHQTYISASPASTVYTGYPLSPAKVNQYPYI
T2 sequence (P49760 whole entry): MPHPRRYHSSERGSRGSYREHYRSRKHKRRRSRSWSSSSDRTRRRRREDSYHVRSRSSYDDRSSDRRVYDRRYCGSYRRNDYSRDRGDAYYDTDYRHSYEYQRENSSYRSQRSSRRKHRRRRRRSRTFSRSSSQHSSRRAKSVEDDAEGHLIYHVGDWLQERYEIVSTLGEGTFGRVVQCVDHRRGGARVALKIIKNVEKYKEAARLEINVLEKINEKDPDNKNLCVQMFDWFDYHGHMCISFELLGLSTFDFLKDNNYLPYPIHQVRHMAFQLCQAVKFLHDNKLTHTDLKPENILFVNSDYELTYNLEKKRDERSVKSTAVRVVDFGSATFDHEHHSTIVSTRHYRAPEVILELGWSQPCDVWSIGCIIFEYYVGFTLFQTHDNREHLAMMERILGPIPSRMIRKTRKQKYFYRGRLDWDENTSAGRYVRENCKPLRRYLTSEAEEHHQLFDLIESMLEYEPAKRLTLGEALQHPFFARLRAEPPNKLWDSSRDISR

A word on the IC50: it is the midpoint of a concentration-inhibition curve. Regarding `Cn1cc(-c2ccc3occ(-c4ccccc4)c3n2)cn1` [Preparative Example 6A], the IC50 was < 1000 nM on HIPK2(h); < 1000 nM at CLK2 (h) (radiometric, 15 μM ATP, 40 minutes at room temperature, read-out: CLK2 IC50); < 5000 nM against DYRK2; < 1000 nM at HIPK1(h).

Regarding `c1ccc(-c2coc3ccc(-c4cn[nH]c4)nc23)cc1` [Preparative Example 9], the IC50 against HIPK2(h) is < 100 nM; against CLK2 (h), < 100 nM; against DYRK2, < 5000 nM; against HIPK1(h), < 100 nM.
